From patent US4259235A, “Tricyclic nitrogenous compounds having string plant growth regulating properties” (BASF Aktiengesellschaft, priority 1977, dated 1981) come the findings set out here.

The structures appear in SMILES notation.

One assay concerns spring wheat. Nature of the assay: Growth height of spring wheat, soil treatment, Example 10. The class given is in vivo, spring wheat ("Opal" variety). How it is done:
Spring wheat ("Opal" variety) and spring barley ("Union" variety) were grown under greenhouse conditions in plastic dishes 11.5 cm in diameter, in a peat substrate provided with sufficient nutrients. For the soil (preemergence) treatment, the active ingredients were poured, at two application rates, as aqueous formulations onto the surface of the substrate after sowing.
The plant height was measured at the end of the experiment. The figures obtained show the shortening effect of the active ingredients under investigation. The prior art compound β-chloroethylphosphonic acid (Ethephon, German Printed Application DAS No. 1,667,968) was used for comparison purposes.

Another assay concerns grass. Nature of the assay: Growth height of, and amount of mowings in, grass, Example 12. The class given is in vivo. The note with it: for First mowing, growth height, relative / First mowing, mowings, relative / Second mowing, growth height, relative / Second mowing, mowings, relative: control = 100. From the text:
In an experiment in large vessels, lawn seed of the following standard composition was sown in a loamy soil: Agrostis tenuis (10%), Cynosurus cristatus (10%), Festuca rubra (15%), Lolium perenne (35%) and Poa pratensis (30%). 1.5 g of N as ammonium nitrate and 1 g of P2 O5 as secondary potassium phosphate were applied as fertilizer. After the grass had been cut twice, the active ingredients were sprayed in conventional manner at various application rates onto the grass which was 4 cm high. The growth height and the mowings were determined 19 days after the treatment. Compared with the control, the treated plants reacted with most considerable height reductions and a proportionate decrease in mowings.

Turning to `O=[N+]([O-])c1ccc(C2=NOC3C4CC(C5N=NC45)C23)cc1` (stereo not shown) [drawing 394], the Plant height in the assay with spring wheat (3 kg/ha) is given as 25.5 cm; in the assay with spring wheat (12 kg/ha) it was 22.0 cm. Moreover, the “Plant height, % of untreated control” value in the assay with spring wheat (3 kg/ha) was found to be 79.7%; in the assay with spring wheat (12 kg/ha), 68.8%.

For `c1ccc(C2=NOC3C4CC(C5N=NC45)C23)cc1` (stereo not shown) [drawing 424], in the assay on grass (3.0 kg/ha), the “First mowing, growth height” value is given as 20.0 cm; the “First mowing, mowings” value is given as 116.3 g; the “Second mowing, growth height” value came out at 19.0 cm; the “Second mowing, mowings” value was determined as 94.8 g. In the assay on grass (3.0 kg/ha), the “First mowing, growth height, relative” value was 91.7; the “First mowing, mowings, relative” value is given as 86.7; the “Second mowing, growth height, relative” value was 95.0; the “Second mowing, mowings, relative” value is 104.6. Also, in the assay with grass (6.0 kg/ha), the “First mowing, growth height” value stood at 17.0 cm; the “First mowing, mowings” value came out at 101.1 g; the “Second mowing, growth height” value is 16.5 cm; the “Second mowing, mowings” value is on record as 85.2 g. For the same compound, in the assay with grass (6.0 kg/ha), the “First mowing, growth height, relative” value worked out at 78.0; the “First mowing, mowings, relative” value was determined as 75.3; the “Second mowing, growth height, relative” value was 82.5; the “Second mowing, mowings, relative” value amounted to 94.0.

With `Clc1ccc(C2=NOC3C4CC(C5N=NC45)C23)cc1` (stereo not shown) [drawing 426], in the assay on grass (3.0 kg/ha), the “First mowing, growth height” value is given as 21.0 cm; the “First mowing, mowings” value is given as 117.7 g; the “Second mowing, growth height” value is reported as 18.5 cm; the “Second mowing, mowings” value is given as 75.3 g. In the assay with grass (3.0 kg/ha), the “First mowing, growth height, relative” value came out at 96.3; the “First mowing, mowings, relative” value was 87.7; the “Second mowing, growth height, relative” value came out at 92.5; the “Second mowing, mowings, relative” value came to 83.1. Further, in the assay with grass (6.0 kg/ha), the “First mowing, growth height” value was found to be 18.5 cm; the “First mowing, mowings” value worked out at 114.0 g; the “Second mowing, growth height” value was 17.0 cm; the “Second mowing, mowings” value is 72.1 g. For the same compound, in the assay on grass (6.0 kg/ha), the “First mowing, growth height, relative” value amounted to 84.9; the “First mowing, mowings, relative” value came to 84.9; the “Second mowing, growth height, relative” value is on record as 85.0; the “Second mowing, mowings, relative” value was 79.6.

Take `Brc1ccc(C2=NOC3C4CC(C5N=NC45)C23)cc1` (stereo not shown) [drawing 393]: in the assay with spring wheat (3 kg/ha), the Plant height was found to be 26.5 cm and the “Plant height, % of untreated control” value turned out to be 82.8%. Moreover, in the assay with spring wheat (12 kg/ha), the Plant height came out at 25.5 cm and the “Plant height, % of untreated control” value came out at 79.7%.

For the compound `COc1ccc(C2=NOC3C4CC(C5N=NC45)C23)cc1` (stereo not shown) [drawing 396], in the assay on spring wheat (3 kg/ha), the Plant height was determined as 27.0 cm and the “Plant height, % of untreated control” value was found to be 84.4%. Further, in the assay with spring wheat (12 kg/ha), the Plant height worked out at 24.5 cm and the “Plant height, % of untreated control” value is reported as 76.6%.

Take `Cc1ccc(C2=NOC3C4CC(C5N=NC45)C23)cc1` (stereo not shown) [drawing 395]: the values for the Plant height with spring wheat (3 kg/ha) and in the assay on spring wheat (12 kg/ha) were 23.5 cm and 22.0 cm, respectively. The “Plant height, % of untreated control” value was 73.4% with spring wheat (3 kg/ha) and 68.8% in the assay with spring wheat (12 kg/ha).

Regarding `Clc1ccc(C2N=NC3C4CC(C5N=NC45)C23)cc1` (stereo not shown) [drawing 425], in the assay with grass (3.0 kg/ha), the “First mowing, growth height” value is 20.0 cm; the “First mowing, mowings” value was 125.1 g; the “Second mowing, growth height” value worked out at 19.0 cm; the “Second mowing, mowings” value came to 89.9 g. Besides, in the assay on grass (3.0 kg/ha), the “First mowing, growth height, relative” value is given as 91.7; the “First mowing, mowings, relative” value is 93.2; the “Second mowing, growth height, relative” value is reported as 95.0; the “Second mowing, mowings, relative” value stood at 99.2. For the same compound, in the assay on grass (6.0 kg/ha), the “First mowing, growth height” value stood at 18.0 cm; the “First mowing, mowings” value was found to be 119.0 g; the “Second mowing, growth height” value is 19.0 cm; the “Second mowing, mowings” value is listed as 92.2 g. In the assay on grass (6.0 kg/ha), the “First mowing, growth height, relative” value came out at 82.6; the “First mowing, mowings, relative” value stood at 88.7; the “Second mowing, growth height, relative” value was found to be 95.0; the “Second mowing, mowings, relative” value is 101.8.
